# Measured values published in US20040185457A1, “Method for detecting dna polymerisation” (priority 2001, published 2004).
# Columns and labels:
# Type in all cases: biochemical
# [1] = molecular target: T1, Photinus pyralis luciferase (Photinus pyralis, UniProt P08659); experiment: Bioluminescence of nucleotides with firefly luciferase in pyrophosphate assay buffer (ELIDA reagent); details: for wavelength of maximal light emission: pH 7.8
# T1 construct: purchased Promega
# Description: Pyrophosphate assay buffer (PAB) was made up as follows:
# 50 μl of PAB was aliquoted into two wells of a 96 well plate. To one sample was added 1 μl of 0.1 mM sodium pyrophosphate; to the other was added 1 μl of 2 mM dATP. The resulting light emission was observed using a Syngene light-box with a black and white CCD camera integrating the signal over 5 seconds. […] The amount of dATP added is equivalent to ⅕ the amount used in a standard 50 μl PCR reaction.
# A green filter was placed in front of the lens of the CCD camera and the sample above was observed once more.
# Taq polymerase = molecular target: T2, Taq polymerase (Thermus aquaticus, UniProt P19821); experiment: PCR using the dATP analogue, product seen by agarose gel electrophoresis
# T2 construct: purchased Roche
# Description: A 50 μl PCR reaction contained the following:
# The sequences of primers 1 and 2 and the test plasmid are given in SEQ ID Nos. 1, 2 and 3, respectively. The size of the expected PCR product was 158 bp.
# Taq polymerase was added to the sample after heating to 95° for 30 seconds. The following cycling parameters were implemented on a Perkin-Elmer GeneAmp PCR system 2400.
# 10 μl of the resulting PCR reaction was loaded onto a […] containing ethidium bromide alongside a molecular weight marker. The gel was run at 60V for 50 minutes and then visualised under a transilluminator.
# luciferase [2] = molecular target: T3, luciferase (Photinus pyralis, UniProt P08659); experiment: Stability of light emission from ELIDA assays of PCR reactions; details: four consecutive readings over 1 minute; for light emission over time: 5 and 35 cycle PCR samples
# Description: PCR reactions were set up and run as in Example 5. The analysis of each PCR sample was initiated by mixing 1 μl of the PCR reaction with 20 μl of ELIDA assay buffer. The light emitted from the sample was then measured with a Labsystems Luminoscan Ascent luminometer in a series of four consecutive light readings over a period of 1 minute. Each light reading represented the light emission from the sample integrated over a ten-second interval (using the machine's default PMT voltage).
# This effect becomes greater with the number of PCR cycles. […] As a result, the magnitude of the differential between the readings for 5 and 35 cycles over the four readings taken, is almost constant (only 5% difference).
# luciferase [3] = molecular target: T3, luciferase; experiment: Signal:background ratio in ELIDA assays of PCR reactions; details: unreacted PCR mix vs 30 cycles, compared to dATP
# Description: PCR reactions were set up as in Example 2 except that only 0.5 pg of the test plasmid pPw601 a was used. Further, the PCR reactions contained either d-α-SATP or dATP. The light emission from an ELIDA assay of unreacted PCR mixes containing either d-α-SATP or dATP was measured as in Example 6. A further ELIDA assay was performed on the same samples after they had completed 30 cycles of a PCR reaction (and had produced the same amount of amplicon as judged by agarose gel analysis). The ratio of the light emission from the unreacted PCR mix to the reacted PCR mix is shown in FIG. 3 (showing signal:background ratio).
# T3 sequence (P08659 whole entry): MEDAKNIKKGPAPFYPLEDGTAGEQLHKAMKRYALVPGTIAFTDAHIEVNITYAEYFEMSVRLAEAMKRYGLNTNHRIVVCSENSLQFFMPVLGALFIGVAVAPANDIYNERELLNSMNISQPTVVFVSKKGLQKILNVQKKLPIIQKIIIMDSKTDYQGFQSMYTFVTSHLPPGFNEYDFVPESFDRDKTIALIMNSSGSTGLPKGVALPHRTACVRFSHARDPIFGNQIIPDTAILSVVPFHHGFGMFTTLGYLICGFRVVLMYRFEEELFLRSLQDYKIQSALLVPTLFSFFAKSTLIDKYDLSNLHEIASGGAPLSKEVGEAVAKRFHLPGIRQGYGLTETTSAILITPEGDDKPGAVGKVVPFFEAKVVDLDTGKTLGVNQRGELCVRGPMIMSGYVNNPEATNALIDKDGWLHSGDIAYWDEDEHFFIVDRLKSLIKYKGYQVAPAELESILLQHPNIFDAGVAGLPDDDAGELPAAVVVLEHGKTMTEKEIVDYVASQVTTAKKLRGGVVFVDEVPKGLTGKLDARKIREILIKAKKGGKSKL
# T1 sequence (P08659 whole entry): as above
# T2 sequence (P19821 whole entry): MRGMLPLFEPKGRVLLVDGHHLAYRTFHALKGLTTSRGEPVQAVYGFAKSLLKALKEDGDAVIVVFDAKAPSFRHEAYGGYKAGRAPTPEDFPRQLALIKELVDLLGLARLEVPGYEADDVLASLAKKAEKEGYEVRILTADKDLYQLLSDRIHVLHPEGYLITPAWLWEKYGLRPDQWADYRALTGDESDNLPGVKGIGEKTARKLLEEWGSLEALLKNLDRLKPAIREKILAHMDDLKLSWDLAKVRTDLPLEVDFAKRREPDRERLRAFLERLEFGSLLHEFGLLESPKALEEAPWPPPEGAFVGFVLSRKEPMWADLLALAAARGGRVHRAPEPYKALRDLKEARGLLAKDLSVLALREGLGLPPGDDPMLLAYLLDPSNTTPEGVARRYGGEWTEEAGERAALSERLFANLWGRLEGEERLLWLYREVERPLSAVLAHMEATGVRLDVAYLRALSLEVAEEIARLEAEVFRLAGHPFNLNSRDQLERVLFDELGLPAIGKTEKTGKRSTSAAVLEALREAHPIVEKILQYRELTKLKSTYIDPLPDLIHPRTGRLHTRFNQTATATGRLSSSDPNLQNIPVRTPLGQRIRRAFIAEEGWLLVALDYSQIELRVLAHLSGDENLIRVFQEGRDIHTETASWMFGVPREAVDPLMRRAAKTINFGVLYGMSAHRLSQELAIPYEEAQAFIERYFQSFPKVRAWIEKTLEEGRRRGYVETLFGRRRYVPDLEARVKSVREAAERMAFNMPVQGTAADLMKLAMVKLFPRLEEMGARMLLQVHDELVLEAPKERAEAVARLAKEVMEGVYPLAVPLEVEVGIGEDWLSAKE
SMILES,wavelength of maximal light emission [1] [nm],"light emission on addition to pyrophosphate assay buffer ([1]; 1 μl of 2 mM in 50 μl PAB, CCD camera, 5 seconds)",PCR product generated (gel) (Taq polymerase; 1/10th the usual concentration of 0.2 mM),light emission over time (luciferase [2]),substrate quality for luciferase relative to dATP ([1]; direct reaction with luciferase),"PCR product generated (gel) (Taq polymerase; used instead of dATP, 30 cycles)",difference in the differential between the readings for 5 and 35 cycles over the four readings (luciferase [2]) [%],signal:background ratio (luciferase [3])
Nc1ncnc2c1ncn2[C@@H]1O[C@H](COP(=O)(O)OP(=O)(O)OP(=O)(O)O)[C@@H](O)[C@H]1O [ATP],550,–,–,–,–,–,–,–
Nc1ncnc2c1ncn2[C@H]1C[C@H](O)[C@@H](COP(=O)(O)OP(=O)(O)OP(=O)(O)O)O1 [dATP],620,significant light emission,no PCR product is detected,significant decay in light emission over time,–,–,–,–
Nc1ncnc2c1ncn2[C@H]1C[C@H](O)[C@@H](COP(O)(=S)OP(=O)(O)OP(=O)(O)O)O1 (stereo partly drawn) [d-α-SATP],–,–,–,close to constant,approximately one-hundred-fold poorer substrate for luciferase than dATP,a PCR product is generated,5,considerably improves the signal:background ratio
